Literature values as cited in patent US20160015711A1, “CALCIUM PTERIN-6-CARBOXYLATE (CaPTERIN-6-COOH) AS A NOVEL IMMUNO-THERAPEUTIC” (SanRx Pharmaceuticals, Inc., priority 2014, published 2016).

Details: pH <4

## Nc1nc([O-])c2nccnc2n1.Nc1nc([O-])c2nccnc2n1.[Ca+2] [DCP, dipterinyl calcium pentahydrate]
  stability under acidic conditions: breaks down to form CaPterin
